The text below walks through data of PubChem BioAssay AID624167 (Sanford-Burnham Center for Chemical Genomics, 2012).

Molecules are shown by their SMILES. Active and inactive are the calls of the source.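 The calls were made as follows: active = mean IC50 for reducing PEG3 promoter reporter signal at or below a set limit, with IC50 above the limit in both counter screens; inactive = the rest, including counter screen hits.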

The target in test [1] is PEG-3 (UniProt Q6IN02). The test is described as follows: inhibition of PEG-3 promoter-driven reporter – cell-based, HeLa, luciferase, CREF/GAPDH counter-screen panel, dose response (AID 624167). The following applies: HeLa PEG-Prom luciferase reporter, overnight, CREF/GAPDH counter-screens, mean of runs. On the technique in general: The purpose of a counterscreen is to sort out artefacts and off-target activity.

The test system of test [2] is PEG-3. The description is as above. The following applies: HeLa PEG-Prom luciferase reporter, overnight, CREF/GAPDH counter-screens. For orientation: Reporter assays use an easily measured gene product as a stand-in for the process of interest.
[3] abbreviates: run 1, dose range 1, individual replicate IC50 per panel.
The mark [4] stands for this setting: run 2, dose range 1, individual replicate IC50 per panel.

Chain of PEG-3 (UniProt Q6IN02) (Q6IN02 whole entry, looked up): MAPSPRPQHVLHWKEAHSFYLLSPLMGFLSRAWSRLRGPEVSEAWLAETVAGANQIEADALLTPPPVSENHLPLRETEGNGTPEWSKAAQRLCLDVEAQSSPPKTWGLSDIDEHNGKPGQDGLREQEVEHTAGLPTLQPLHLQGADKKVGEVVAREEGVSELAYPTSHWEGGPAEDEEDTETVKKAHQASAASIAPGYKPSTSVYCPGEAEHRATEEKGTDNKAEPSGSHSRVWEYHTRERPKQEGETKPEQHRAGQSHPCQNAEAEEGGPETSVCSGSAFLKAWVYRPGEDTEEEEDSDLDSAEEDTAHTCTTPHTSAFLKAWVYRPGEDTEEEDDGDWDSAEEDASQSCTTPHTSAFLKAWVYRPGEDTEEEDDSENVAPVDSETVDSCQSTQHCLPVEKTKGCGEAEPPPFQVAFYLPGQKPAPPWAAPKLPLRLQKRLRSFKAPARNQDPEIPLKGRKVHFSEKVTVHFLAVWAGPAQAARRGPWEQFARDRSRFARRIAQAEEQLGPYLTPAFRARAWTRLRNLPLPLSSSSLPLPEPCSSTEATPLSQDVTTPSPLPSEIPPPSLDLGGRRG

The term IC50 denotes the point on the concentration scale where inhibition reaches its midpoint. As for `O=C(c1ccccc1)N(C(=O)c1ccccc1)c1ncnc2c1C(c1ccccc1)c1c(ccc3ccccc13)O2` (stereo not drawn), the IC50 result at PEG-3 [1] was “inactive”. The IC50 in the test with PEG-3 [2] (setting [3]) is 4.36 µM; with PEG-3 [2] (setting [4]), above 100 µM.

As to `c1ccc(CCNc2nc(-c3ccncc3)nc3ccccc23)cc1`, the IC50 at PEG-3 [1] is 13.1 µM; in the test with PEG-3 [2] (setting [3]), 17.7 µM; in the test on PEG-3 [2] (setting [4]), 8.58 µM.

In the case of `CC(C)CC(N)c1csc(Nc2ccc(C(=O)c3ccccc3)cc2)n1` (stereo not drawn), at PEG-3 [1], the IC50 entry was “inactive”. The IC50 in the test with PEG-3 [2] (setting [3]) is 31.1 µM; in the test on PEG-3 [2] (setting [4]) it was 29.8 µM.

Consider `Cc1ccc(-c2nnc(N3CCN(c4ccccn4)CC3)c3ccccc23)cc1`, for which the IC50 is 18.2 µM on PEG-3 [1], 20.9 µM in the test with PEG-3 [2] (setting [3]) and 15.4 µM in the test on PEG-3 [2] (setting [4]).

On to `Cc1noc(-c2ccc(Cl)cc2)c1C(=O)O/N=C(\N)c1ccc(C(C)(C)C)cc1`, for which the results for the IC50 on PEG-3 [1], with PEG-3 [2] (setting [3]) and with PEG-3 [2] (setting [4]) were 13.2 µM, 17.3 µM and 9.17 µM, respectively.

For the compound `Cc1ccc(C2=NC(=O)/C(=C/c3cc(O)c(O)c(Br)c3)S2)cc1`, at PEG-3 [1], the IC50 entry was “inactive”. Besides, the IC50 in the test with PEG-3 [2] (setting [3]) was found to be 17.1 µM; in the test on PEG-3 [2] (setting [4]) it was 27.1 µM.

As for `CCC1=C(CC2NCCc3ccccc32)CC2c3cc(OC)c(OC)cc3CCN2C1` (stereo not drawn), the figures for the IC50 on PEG-3 [1], in the test on PEG-3 [2] (setting [3]) and with PEG-3 [2] (setting [4]) were 14.2 µM, 15.1 µM and 13.3 µM, respectively.

For the compound `O=S(=O)(c1cccs1)N1CCN(c2ccnc3cc(Cl)ccc23)CC1`, the values for the IC50 on PEG-3 [1], in the test with PEG-3 [2] (setting [3]) and in the test with PEG-3 [2] (setting [4]) were 17.4 µM, 11.7 µM and 23.2 µM, respectively.

With `O=C(Nc1ccccc1)NN(C(=O)CCl)c1ccccc1`, the IC50 on PEG-3 [1] is 16.7 µM; in the test on PEG-3 [2] (setting [3]) it was 20.1 µM; in the test on PEG-3 [2] (setting [4]), 13.3 µM.

Take `COc1ccc(Nc2oc(COc3ccccc3OC)nc2C#N)cc1`: the IC50 entry on PEG-3 [1] was “inactive”. In addition, the results for the IC50 in the test on PEG-3 [2] (setting [3]) and in the test with PEG-3 [2] (setting [4]) were 5.83 µM and 39.4 µM, respectively.

Regarding `CCOC(=O)C1=C(COCCN)NC(C)=C(C(=O)OC)C1c1ccccc1Cl` (stereo not drawn), the IC50 on PEG-3 [1] was 15.6 µM; in the test with PEG-3 [2] (setting [3]) it was 19 µM; in the test with PEG-3 [2] (setting [4]) it was 12.1 µM.

Regarding `CCOC(=O)c1ccc2ncc(C(=O)OCC)c(NCCN(C)C)c2c1`, the IC50 entry at PEG-3 [1] is “inactive”. Also, the IC50 amounted to 15 µM in the test on PEG-3 [2] (setting [3]) and 43.4 µM in the test on PEG-3 [2] (setting [4]).

For the compound `Cc1ccc(N2CC(C(=O)Nc3nccs3)CC2=O)cc1Cl` (stereo not drawn), the IC50 result at PEG-3 [1] was “inactive”. For the same compound, the IC50 was determined as 33 µM in the test on PEG-3 [2] (setting [3]) and 10.5 µM in the test on PEG-3 [2] (setting [4]).

In the case of `Cc1nc2c(OCc3ccc(OC(F)F)cc3)cccn2c1N(C)C(=O)CCC1CCCC1`, the IC50 entry at PEG-3 [1] was “inactive”. Besides, the IC50 stood at 28.9 µM in the test on PEG-3 [2] (setting [3]) and 23.5 µM in the test with PEG-3 [2] (setting [4]).

As to `Oc1ccc(C23CCCC2C2(CCCC2)c2ccc(O)cc2O3)c(O)c1` (stereo not drawn), the IC50 entry at PEG-3 [1] was “inactive”. Also, the IC50 with PEG-3 [2] (setting [3]) was 27.2 µM; in the test on PEG-3 [2] (setting [4]), 54.4 µM.

`O=C(O)CN1C(=O)/C(=C\c2ccccc2OCc2ccc(Cl)cc2Cl)SC1=S`: the IC50 at PEG-3 [1] is 16.9 µM; in the test with PEG-3 [2] (setting [3]), 16.6 µM; with PEG-3 [2] (setting [4]) it was 17.2 µM.

With `CC1CCCC(C)N1C(=C(Cl)Cl)C(=C1SCCS1)[N+](=O)[O-]` (stereo not drawn), the IC50 on PEG-3 [1] was 14 µM; with PEG-3 [2] (setting [3]) it was 11.5 µM; in the test on PEG-3 [2] (setting [4]) it was 16.6 µM.

Regarding `CCCCC(=O)NC(c1ccccc1Cl)c1ccc2cccnc2c1O` (stereo not drawn), the IC50 result at PEG-3 [1] is “inactive”. Also, the values for the IC50 in the test on PEG-3 [2] (setting [3]) and in the test with PEG-3 [2] (setting [4]) were 2.98 µM and above 100 µM, respectively.

As for `CN[C@H]1C[C@H]2c3[nH]c4ccc(-c5cccc(C)c5)cc4c3CCN2C[C@H]1[C@H](C)O`, the IC50 on PEG-3 [1] was 13.6 µM; in the test on PEG-3 [2] (setting [3]), 18.8 µM; with PEG-3 [2] (setting [4]), 8.37 µM.

Take `CN1CCN(CCNC(=O)c2ccc3nc(-c4ccc(F)cc4)c(-c4ccc(F)cc4)nc3c2)CC1`: the figures for the IC50 at PEG-3 [1], in the test with PEG-3 [2] (setting [3]) and in the test on PEG-3 [2] (setting [4]) were 15.4 µM, 19.4 µM and 11.3 µM, respectively.

Consider `CC1(C)CC(NC(=O)c2sc3cc(Cl)ccc3c2Cl)CC(C)(C)N1`, for which the IC50 at PEG-3 [1] was 18.1 µM; with PEG-3 [2] (setting [3]), 20.7 µM; with PEG-3 [2] (setting [4]), 15.6 µM.

As for `c1ccc(-c2cc(-c3nc4ccccc4[nH]3)c3ccccc3n2)cc1`, the IC50 entry on PEG-3 [1] was “inactive”. For the same compound, the IC50 was 15.3 µM with PEG-3 [2] (setting [3]) and 39.9 µM in the test on PEG-3 [2] (setting [4]).

Turning to `N#Cc1cc2c(nc1SC1CC(=O)N(c3ccccc3)C1=O)CCC2` (stereo not drawn), the IC50 result at PEG-3 [1] is “inactive”. Moreover, the IC50 was above 100 µM with PEG-3 [2] (setting [3]) and 1.02 µM in the test on PEG-3 [2] (setting [4]).

Turning to `Cn1nnnc1Sc1ncnc2scc(-c3ccc4c(c3)OCO4)c12`, at PEG-3 [1], the IC50 result is “inactive”. Besides, the values for the IC50 in the test on PEG-3 [2] (setting [3]) and in the test with PEG-3 [2] (setting [4]) were 34.5 µM and 53.6 µM, respectively.

With `CN(C)CCCNc1ncnc2oc(-c3ccccc3)c(-c3ccccc3)c12`, the IC50 on PEG-3 [1] was 15.7 µM; with PEG-3 [2] (setting [3]), 16.6 µM; with PEG-3 [2] (setting [4]), 14.8 µM.

In the case of `CCc1ccc(O)c(CNCCNCc2cc(CC)ccc2O)c1`, the IC50 at PEG-3 [1] was 18.5 µM; in the test on PEG-3 [2] (setting [3]), 20.6 µM; with PEG-3 [2] (setting [4]), 16.4 µM.
